# Experimental data published in patent US20250346643A1, “TROPOMYOSIN KINASE RECEPTOR (TRK) LIGANDS AS THERAPEUTICS TO SUPPORT LIVER REGENERATION” (Vanderbilt University, priority 2024, published 2025).
# Tests used:
# [1] = tested on: mTOR; experiment: Immunoblotting of mpPHH for P-S6RP and P-P70S6K (mTOR activation); type: cell-based, human; conditions: NTF3
# Protocol: (§1) Mouse passaged primary human hepatocytes. Mouse-passaged primary human hepatocytes (mpPHHs) were collected as previously described (Michailidis et al., Proc Natl Acad Sci USA. 2020; 117(3): 1678-1688) and cultured in hepatocyte culture media (CC-3198, Lonza, Basel, Switzerland) in collagen-coated chamber slides. Three days before treatment, mpPHH were incubated in William's E media (with L-glutamine). […] 5-15 images per treatment per experiment were randomly taken and EdU positive nuclei quantified.
# (§2) Immunoblotting. […] Protein concentration of supernatants was determined by Direct Detect Spectrophotometer (MilliporeSigma, Burlington, MA). […] The protein concentration of supernatants was determined by a Direct Detect® spectrophotometer (MilliporeSigma, Burlington, MA). For immunoblot analysis, 10 to 50 μg of protein diluted in […] sample buffer (Invitrogen, Waltham, MA) were analyzed per SDS-polyacrylamide gel electrophoresis (NuPAGE™, Invitrogen, Waltham, MA) using Mops buffer or MES buffer (Invitrogen, Waltham, MA). […] Semi-quantitative band densitometry was performed using ImageJ software (version 1.53).
# [2] = tested on: P-TRKA Tyr674/675, P-TRKB Tyr706/707; experiment: Western blot of phosphorylated TRK in HepG2 cell lysates; type: cell-based, human; conditions: HepG2, NTF3 (FIG. 9G-H)
# Protocol: Human HepG2 and mouse AML12 cells were grown in 6-well plates. […] Lyophilized NTF3 was solubilized with sterile filtered PBS supplemented with 0.1% BSA, aliquoted and stored at −80° C. until use. […] Cell lysates were sonicated and centrifuged for 10 min at 18,800×g. Protein concentration of supernatants were determined by Direct Detect Spectrophotometer (MilliporeSigma, Burlington, MA).
# For immunoblot analysis, 30-50 μg of protein diluted in LSD sample buffer (Invitrogen, Waltham, MA) were analyzed per SDS-PAGE (NuPAGE™, Invitrogen, Waltham, MA) using MOPS buffer or MES buffer (Invitrogen, Waltham, MA). Gels were stained with Coomassie (Bio-Safe Coomassie G-250 Stain, Bio-Rad, Hercules, CA) and transferred onto PVDF membranes using semi-dry blotting (Trans-Blot SD, Bio-Rad, Hercules, CA). Images were visualized on an Amersham™ Imager 680 (Cytiva, Marlborough, MA).
# [3] = tested on: AML12 cells; experiment: Cell proliferation assay (CellTiter-Glo) in AML12 cells; type: cell-based, mouse; conditions: NTF3 20 ng/ml, AML12 (FIG. 9E-F)
# Protocol: (§3) Cell lines. Human HepG2 (ATCC HB-8065) were maintained in MEM media with 10% FBS and the mouse hepatocyte cell line AML12 (ATCC, Manassas, VA; CRL-2254) in DMEM/F12 media supplemented with dexamethasone (40 ng/ml) and Insulin-Transferrin-Selenium (Gibco, Waltham, MA; 41400045), containing 10% FBS and 1% penicillin and streptomycin. JS1 (RRID: CVCL_C7PL), LX2 (RRID: CVCL_5792, MilliporeSigma, Burlington, MA; SCC064) and TWNT4 (RRID: CVCL_W296) cells were cultured in DMEM supplemented with 10% FBS. 293T cells (ATCC, Manassas, VA; CRL-3216) were cultured in DMEM supplemented with 10% FBS.
# (§4) Cell proliferation assays. Primary mouse hepatocytes, HepG2 or AML 12 cells were grown in opaque-walled 96-well plates. NTF3 (final concentration 20 ng/ml) (STEMCELL Technologies, Vancouver, Canada; cat. 78074) and/or Loxo-195 (final concentration 5 nM) (Selleckchem, Houston, TX; S8636) were added into complete growth media without L-glutamine. Primary mouse hepatocytes were also grown in serum-free William's E media without supplements. Cells were analyzed by CellTiter-Glo® (Promega G7570, Madison, WI) which detects the number of viable cells on day 0 to day 5 by on detection systems GloMax® (Promega) or Bioteck Synergy H1 (Agilent, Santa Clara, CA). Mouse recombinant HGF (Abcam, Cambridge, UK; ab281797) was added to cell culture media at a final concentration 5 ng/ml. […]
# [4] = tested on: CCND1 and PCNA; experiment: Immunoblotting of mpPHH for CCND1 and PCNA; type: cell-based, human; conditions: mpPHHs, NTF3
# Protocol: as §1, §2
# [5] = tested on: HepG2 cells; experiment: Cell proliferation assay (CellTiter-Glo) in HepG2 cells; type: cell-based, human; conditions: NTF3 20 ng/ml, HepG2 (FIG. 8G-H)
# Protocol: as §3, §4
substance,measurement,setting,value
"NTF3: neurotrophin-3, recombinant protein; HSC-derived hepatocyte mitogen, ligand of TRKA, TRKB, TRKC",levels of phosphorylated P-S6RP Ser240/244 and P-pS70SK Thr389,[1],increased levels
same,"TRK phosphorylation (P-TRKA Tyr674/675, P-TRKB Tyr706/707)",[2],Increased TRK phosphorylation
same,cell proliferation,[3],greatly stimulated cell proliferation
same,CCND1 and PCNA (immunoblotting),[4],induced CCND1 and PCNA
same,cell proliferation,[5],greatly stimulated cell proliferation
